From patent US7745619B2, “Vinca derivatives” (priority 2003, dated 2010)
Where two headings read alike, the source gives them in different places.

Experiments:
HeLa S-3 cells = assay: HeLa GI50 determination (SRB growth inhibition); assay type: cell-based, human; details: Homo sapiens, HeLa S3, 48 h
Summary of the method: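 Cells plated at 2×10^4/well; day-0 plate TCA-fixed, test compounds added at 10-fold dilutions for 2 days. SRB staining, absorbance at 490 nm; GI = 100×(T−T0)/(C−T0), GI50 from growth inhibition vs. concentration plots.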

MCF-7 cells = assay: MCF-7 GI50 determination (crystal violet growth inhibition); assay type: cell-based, human; details: Homo sapiens, MCF7, 96 h
Summary of the method: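 MCF-7 cells seeded at 2×10^4 cells/well, grown 24 h drug-free, then exposed to 10-fold compound dilutions for 4 days. Glutaraldehyde-fixed cells stained with crystal violet, absorbance read at 570 nm; GI=100×(T/T0) against day-0 control OD, GI50 from growth inhibition versus concentration plots.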

[1] = read-out: MCF-7 Cells GI50 (nM)
[2] = HeLa S-3 cells, 2 days of treatment, sulforhodamine B, read-out: HeLa Cells GI50
[3] = MCF-7 cells, 4 days of treatment, crystal violet, read-out: MCF-7 Cells GI50

| Structure (SMILES) | GI50 (HeLa S-3 cells; read-out: HeLa Cells GI50 (nM)) | GI50 (MCF-7 cells; [1]) | GI50 (HeLa S-3 cells; [2]) | GI50 (MCF-7 cells; [3]) |
| --- | --- | --- | --- | --- |
| CC[C@]1(O)C[C@H]2CN(CCc3c([nH]c4ccc(C(=O)OCC(Cl)(Cl)Cl)cc34)[C@@](C(=O)OC)(c3cc4c(cc3OC)N(C)[C@H]3[C@@](O)(C(=O)OC)[C@H](OC(C)=O)[C@]5(CC)C=CCN6CC[C@]43[C@@H]65)C2)C1 [Example 68, 12′-(2,2,2-trichloroethylcarbonyl)vinblastine] | 30 nM | 200 nM |  |  |
| CC[C@]1(O)C[C@H]2CN(CCc3c([nH]c4ccc(C(=O)NC)cc34)[C@@](C(=O)OC)(c3cc4c(cc3OC)N(C)[C@H]3[C@@](O)(C(=O)OC)[C@H](OC(C)=O)[C@]5(CC)C=CCN6CC[C@]43[C@@H]65)C2)C1 [Example 69, 12′-N-(methylaminocarbonyl)vinblastine] | 600 nM | > 1000 nM |  |  |
| CC[C@]1(O)C[C@H]2CN(CCc3c([nH]c4ccc(C(C)=O)cc34)[C@@](C(=O)OC)(c3cc4c(cc3OC)N(C)[C@H]3[C@@](O)(C(=O)OC)[C@H](OC(C)=O)[C@]5(CC)C=CCN6CC[C@]43[C@@H]65)C2)C1 [Example 70, 12′-acetylvinblastine] | 200 nM | 100 nM |  |  |
| CC[C@]1(O)C[C@H]2CN(CCc3c([nH]c4ccc(C(=O)CC(C)C)cc34)[C@@](C(=O)OC)(c3cc4c(cc3OC)N(C=O)[C@H]3[C@@](O)(C(=O)OC)[C@H](OC(C)=O)[C@]5(CC)C=CCN6CC[C@]43[C@@H]65)C2)C1 [Example 71, 12′-(3-methylbutanoyl) vincristine] | 200 nM | 100 nM |  |  |
| CCCCCC(=O)c1ccc2[nH]c3c(c2c1)CCN1C[C@H](C[C@@](O)(CC)C1)C[C@]3(C(=O)OC)c1cc2c(cc1OC)N(C=O)[C@H]1[C@@](O)(C(=O)OC)[C@H](OC(C)=O)[C@]3(CC)C=CCN4CC[C@]21[C@@H]43 [Example 72, 12′-hexanoylvincristine] | 40 nM | 50 nM |  |  |
| CC[C@]1(O)C[C@H]2CN(CCc3c([nH]c4ccc(CCC(C)C)cc34)[C@@](C(=O)OC)(c3cc4c(cc3OC)N(C=O)[C@H]3[C@@](O)(C(=O)OC)[C@H](OC(C)=O)[C@]5(CC)C=CCN6CC[C@]43[C@@H]65)C2)C1 [Example 73, 12′-(3-methylbutyl) vincristine] | 200 nM | 300 nM |  |  |
| CCCCCCc1ccc2[nH]c3c(c2c1)CCN1C[C@H](C[C@@](O)(CC)C1)C[C@]3(C(=O)OC)c1cc2c(cc1OC)N(C=O)[C@H]1[C@@](O)(C(=O)OC)[C@H](OC(C)=O)[C@]3(CC)C=CCN4CC[C@]21[C@@H]43 [Example 74, 12′-hexylvincristine] |  |  | 30 nM | 40 nM |
| CC[C@]1(O)C[C@H]2CN(CCc3c([nH]c4ccc(C)cc34)[C@@](C(=O)OC)(c3cc4c(cc3OC)N(C=O)[C@H]3[C@@](O)(C(=O)OC)[C@H](OC(C)=O)[C@]5(CC)C=CCN6CC[C@]43[C@@H]65)C2)C1 [Example 76, 12′-methylvincristine] |  |  | 1 nM | 3 nM |
| CCc1ccc2[nH]c3c(c2c1)CCN1C[C@H](C[C@@](O)(CC)C1)C[C@]3(C(=O)OC)c1cc2c(cc1OC)N(C)[C@H]1[C@@](O)(C(=O)OC)[C@H](OC(C)=O)[C@]3(CC)C=CCN4CC[C@]21[C@@H]43 [Example 77, 12′-ethylvinblastine] |  |  | 0.3 nM | 0.6 nM |
| CCc1ccc2[nH]c3c(c2c1)CCN1C[C@H](C[C@@](O)(CC)C1)C[C@]3(C(=O)OC)c1cc2c(cc1OC)N(C=O)[C@H]1[C@@](O)(C(=O)OC)[C@H](OC(C)=O)[C@]3(CC)C=CCN4CC[C@]21[C@@H]43 [Example 78, 12′-ethylvincristine] |  |  | 5 nM | 10 nM |
| CC[C@]1(O)C[C@H]2CN(CCc3c([nH]c4ccc(N(C)c5ccccc5)cc34)[C@@](C(=O)OC)(c3cc4c(cc3OC)N(C)[C@H]3[C@@](O)(C(=O)OC)[C@H](OC(C)=O)[C@]5(CC)C=CCN6CC[C@]43[C@@H]65)C2)C1 [Example 79, 12′-(N-methyl-N-phenylamino) vinblastine] | 700 nM | > 1000 nM |  |  |
| CC[C@]1(O)C[C@H]2CN(CCc3c([nH]c4ccc(N)cc34)[C@@](C(=O)OC)(c3cc4c(cc3OC)N(C)[C@H]3[C@@](O)(C(=O)OC)[C@H](OC(C)=O)[C@]5(CC)C=CCN6CC[C@]43[C@@H]65)C2)C1 [Example 80, 12′-aminovinblastine] |  |  | 200 nM | 200 nM |
| CC[C@]1(O)C[C@H]2CN(CCc3c([nH]c4ccc(N(C)C)cc34)[C@@](C(=O)OC)(c3cc4c(cc3OC)N(C)[C@H]3[C@@](O)(C(=O)OC)[C@H](OC(C)=O)[C@]5(CC)C=CCN6CC[C@]43[C@@H]65)C2)C1 [Example 81, 12′-(N,N-dimethylamino)vinblastine] |  |  | 30 nM | 50 nM |
| CC[C@]1(O)C[C@H]2CN(CCc3c([nH]c4ccc(Nc5ccccc5)cc34)[C@@](C(=O)OC)(c3cc4c(cc3OC)N(C)[C@H]3[C@@](O)(C(=O)OC)[C@H](OC(C)=O)[C@]5(CC)C=CCN6CC[C@]43[C@@H]65)C2)C1 [Example 82, 12′-(phenylamino) vinblastine] | 300 nM | 600 nM |  |  |
| CC[C@]1(O)C[C@H]2CN(CCc3c([nH]c4ccc(Nc5ccc(OC)cc5)cc34)[C@@](C(=O)OC)(c3cc4c(cc3OC)N(C)[C@H]3[C@@](O)(C(=O)OC)[C@H](OC(C)=O)[C@]5(CC)C=CCN6CC[C@]43[C@@H]65)C2)C1 [Example 83, 12′-(4-methoxyphenylamino)vinblastine] | 300 nM | 500 nM |  |  |
| CC[C@]1(O)C[C@H]2CN(CCc3c([nH]c4ccc(Nc5ccc(C(F)(F)F)cc5)cc34)[C@@](C(=O)OC)(c3cc4c(cc3OC)N(C)[C@H]3[C@@](O)(C(=O)OC)[C@H](OC(C)=O)[C@]5(CC)C=CCN6CC[C@]43[C@@H]65)C2)C1 [Example 84, 12′-(4-trifluoromethylphenylamino)vinblastine] | 30 nM | 500 nM |  |  |
| CC[C@]1(O)C[C@H]2CN(CCc3c([nH]c4ccc(N5CCCCC5)cc34)[C@@](C(=O)OC)(c3cc4c(cc3OC)N(C)[C@H]3[C@@](O)(C(=O)OC)[C@H](OC(C)=O)[C@]5(CC)C=CCN6CC[C@]43[C@@H]65)C2)C1 [Example 85, 12′-(1-piperidinyl) vinblastine] | 20 nM | 30 nM |  |  |
| CC[C@]1(O)C[C@H]2CN(CCc3c([nH]c4ccc(N5CCOCC5)cc34)[C@@](C(=O)OC)(c3cc4c(cc3OC)N(C)[C@H]3[C@@](O)(C(=O)OC)[C@H](OC(C)=O)[C@]5(CC)C=CCN6CC[C@]43[C@@H]65)C2)C1 [Example 86, 12′-(4-morpholino) vinblastine] | 30 nM | 50 nM |  |  |
| CC[C@]1(O)C[C@H]2CN(CCc3c([nH]c4ccc(N5CCCC5)cc34)[C@@](C(=O)OC)(c3cc4c(cc3OC)N(C)[C@H]3[C@@](O)(C(=O)OC)[C@H](OC(C)=O)[C@]5(CC)C=CCN6CC[C@]43[C@@H]65)C2)C1 [Example 87, 12′-(pyrrolidin-1-yl) vinblastine] | 50 nM | 60 nM |  |  |
| CC[C@]1(O)C[C@H]2CN(CCc3c([nH]c4cc(I)c(I)cc34)[C@@](C(=O)OC)(c3cc4c(cc3OC)N(C=O)[C@H]3[C@@](O)(C(=O)OC)[C@H](OC(C)=O)[C@]5(CC)C=CCN6CC[C@]43[C@@H]65)C2)C1 [Example 90, 12′,13′-diiodovincristine] | 30 nM | 30 nM |  |  |
| CC[C@]1(O)C[C@H]2CN(CCc3c([nH]c4cc(I)c(I)cc34)[C@@](C(=O)OC)(c3cc4c(cc3OC)N(C)[C@H]3[C@@](O)(C(=O)OC)[C@H](OC(C)=O)[C@]5(CC)C=CCN6CC[C@]43[C@@H]65)C2)C1 [Example 91, 12′,13′-diiodovinblastine] |  |  | 60 nM | 200 nM |
| CC[C@]1(O)C[C@H]2CN(CCc3c([nH]c4cc(I)c(C)cc34)[C@@](C(=O)OC)(c3cc4c(cc3OC)N(C=O)[C@H]3[C@@](O)(C(=O)OC)[C@H](OC(C)=O)[C@]5(CC)C=CCN6CC[C@]43[C@@H]65)C2)C1 [Example 92, 13′-iodo-12′-methyl vincristine] | 30 nM | 30 nM |  |  |
| CC[C@]1(O)C[C@H]2CN(CCc3c([nH]c4cc(C)c(C)cc34)[C@@](C(=O)OC)(c3cc4c(cc3OC)N(C=O)[C@H]3[C@@](O)(C(=O)OC)[C@H](OC(C)=O)[C@]5(CC)C=CCN6CC[C@]43[C@@H]65)C2)C1 [Example 93, 12′,13′-dimethyl vincristine] | 20 nM | 30 nM |  |  |
| CCc1cc2[nH]c3c(c2cc1C)CCN1C[C@H](C[C@@](O)(CC)C1)C[C@]3(C(=O)OC)c1cc2c(cc1OC)N(C=O)[C@H]1[C@@](O)(C(=O)OC)[C@H](OC(C)=O)[C@]3(CC)C=CCN4CC[C@]21[C@@H]43 [Example 94, 13′-ethyl-12′-methyl vincristine] | 30 nM | 50 nM |  |  |
| CCc1cc2[nH]c3c(c2cc1CC)CCN1C[C@H](C[C@@](O)(CC)C1)C[C@]3(C(=O)OC)c1cc2c(cc1OC)N(C=O)[C@H]1[C@@](O)(C(=O)OC)[C@H](OC(C)=O)[C@]3(CC)C=CCN4CC[C@]21[C@@H]43 [Example 95, 12′,13′-diethylvincristine] | 20 nM | 30 nM |  |  |
| CCC1=C[C@H]2CN(CCc3c([nH]c4ccc(I)cc34)[C@@](C(=O)OC)(c3cc4c(cc3OC)N(C)[C@H]3[C@@](O)(C(=O)OC)[C@H](OC(C)=O)[C@]5(CC)C=CCN6CC[C@]43[C@@H]65)C2)C1 [Example 98, 12′-iodoanhydro vinblastine] | 50 nM | 305 nM |  |  |
